According to patent publication US5086047A, “Novel steroids” (Roussel Uclaf, Department des Brevets, priority 1989, dated 1992):
Like-named read-outs stand apart in the source and are kept apart here.

Legend:
[1] = biological target: T1, aromatase (cytochrome P450 aromatase) (Homo sapiens, UniProt P11511); assay: Aromatase inhibition in vitro, human placental microsomes, tritiated water release from 1β,2β-(H^3)-Androstenedione; type: biochemical
T1 construct: This supernatant was then subjected to an ultra-centrifugation stage (90 minutes, 150,000 g) to obtain the microsomal deposit; from tissue; host or cells: human placenta, microsomal fraction
T1 sequence (P11511 1-503): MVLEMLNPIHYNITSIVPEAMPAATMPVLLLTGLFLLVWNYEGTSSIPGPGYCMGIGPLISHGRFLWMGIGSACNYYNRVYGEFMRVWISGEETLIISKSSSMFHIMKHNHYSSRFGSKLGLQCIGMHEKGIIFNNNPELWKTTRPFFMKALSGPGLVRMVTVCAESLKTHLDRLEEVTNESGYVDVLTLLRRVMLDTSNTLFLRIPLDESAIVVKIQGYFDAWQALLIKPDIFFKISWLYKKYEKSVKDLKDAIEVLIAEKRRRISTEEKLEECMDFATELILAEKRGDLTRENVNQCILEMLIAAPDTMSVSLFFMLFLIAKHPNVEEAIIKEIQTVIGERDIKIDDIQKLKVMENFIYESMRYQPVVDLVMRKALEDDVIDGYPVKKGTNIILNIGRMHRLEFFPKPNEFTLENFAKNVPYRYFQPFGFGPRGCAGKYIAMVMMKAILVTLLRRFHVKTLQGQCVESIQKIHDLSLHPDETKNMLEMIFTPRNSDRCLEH
Method: Inhibition dependent on the concentration (measurement of the IC50 =concentration of the inhibitor necessary to reduce the enzymatic activity by 50%).
Human placentas were used which were washed one hour at most after delivery, perfused with physiological serum (5 liters) via the umbilical vein and then deep-frozen at -40° C.
The placentas were thawed at 4° C. and then homogenized (1:3) in a 10 mM phosphate buffer, pH=7.0 containing 100 millimoles of potassium chloride (KCl), 10 millimoles of dithiothreitol (DTT), 10 millimoles of ethylenediamine-tetraacetic acid (EDTA), 40 millimoles of nicotinamide and 250 millimoles of sucrose. The homogenates were then subjected to different phases of centrifugation until the "9000 g" supernatant was obtained (corresponding to cytosol and to endoplasmic reticulum). This supernatant was then subjected to an ultra-centrifugation stage (90 minutes, 150,000 g) to obtain the microsomal deposit. The microsomes were then resuspended in a 50 mM phosphate buffer, pH=7.4, containing 100 millimoles KCl, 1 millimole EDTA, 1 millimole DTT and glycerol (10%). The microsomal suspension was aliquoted and the fractions deep-frozen at the temperature of liquid nitrogen. The concentration of proteins in the microsomal suspension was determined by the BRADFORD method (BRADFORD., Anal. Biochem., Vol. 72, (1976) 248).
To 960 microliters of phosphate buffer (50 millimoles, pH=7.2) 2.5 millimoles glucose-6-phosphate, and containing 0.16 international units of glucose-6-phosphate dehydrogenase (G-6-PDH), the following were added in this order:
1) -10 microliters of inhibitor solubilized in dimethyl-sulfoxide (DMSO) to give final concentrations from 10^-5 M to 10^-10 M.
2) -10 microliters of substrate which was 500 nM Androstenedione solubilized in ethanol and containing 1β,- 2β-(H^3)-Androstenedione in a known isotopic dilution (approx. 200,000 disintegrations per minute).
3) 10 microliters of microsomal suspension equivalent to 25 micrograms of proteins per test.
The enzymatic reaction was then very rapidly initiated by the addition of 10 microliters of reduced nicotinamide adenine dinucleotide phosphate (NADPH) solubilized in water. After stirring, each test was incubated at 37° C. for 10 minutes. The reaction was then stopped by the addition of chloroform (4 ml).
After vigorous stirring of the tubes, they were decanted and centrifuged at 4° C. for 10 minutes at a speed of 3000 r.p.m. (rotations per minute), that is 600 X g. After centrifuging, and for each tube, 100 microliters of supernatant was removed and counted in the presence of a scintillating liquid. This method was derived from the procedures described by Reed et al, (J. Biol. Chem., Vol. 251, (1976), p. 1625) and Thompson et al, (J. Biol. Chem., Vol. 249, (1974), p. 5364). The enzymatic activity (aromatase) was proportional to the percentage of tritium salted out in the form of tritiated water (H^3 20) in the course of the reaction. The inhibition obtained for each concentration of each inhibiting product of the invention was calculated as a percentage of the controls (arbitrary 100%, obtained in the absence of any inhibitor). The CI50 was equal to the concentration of inhibitor necessary to decrease the enzymatic activity by 50% and the values of the CI50 's obtained for the inhibiting products of the invention are as follows: […]

seric estradiol = assay: Amount of estradiol circulating in rats induced with P.M.S.G.; type: in vivo, rat; conditions: female rats, PMSG 100 I.U., ** p<0.01
Method: I-AMOUNT OF ESTRADIOL CIRCULATING IN RATS INDUCED WITH P.M.S.G.
(Pregnant Mare Serum Gonadotrophine)
Female rats weighing 150 g were induced by an injection of P.M.S.G. (100 I.U./rat/sc). After 90 hours, the animals were treated with the product under test (sc or po) and a blood sample was taken before and after treatment to measure the amount of seric estradiol.
DO, -90 h: injection of 100 I.U. of PMSG/rat.
DO, 0 h: sample of blood from […] then treatment with the product under test.
DO, +2 h: sample of blood.
DO, +6 h: killing of animals and collection of blood.
After coagulation and centrifugation of the blood, the serum was recovered which was dosed with estradiol (E2) by means of an RIA dosage kit (Baxter ER155). The results were expressed as a percentage variation relative to the amount of estradiol at time 0 (each animal is its own control). The statistical test used is the Mann-Whitney U-test (*:p<0.05; **:p<0.01).

[2] = human placental microsomes, Androstenedione 500 nM, 37° C., 10 minutes, read-out: CI50 (concentration of inhibitor necessary to decrease the enzymatic activity by 50%)
[3] = Parenterally (so in the source), 5 mg/kg

| Structure (SMILES) | IC50 [1, 2] [nM] | percentage variation relative to the amount of estradiol at time 0, +2 h (seric estradiol; [3]) [percentage variation] | percentage variation relative to the amount of estradiol at time 0, +6 h (seric estradiol; [3]) [percentage variation] | IC50 [1] [nM] | percentage variation relative to the amount of estradiol at time 0, +2 h (seric estradiol; Subcutaneously, 1 mg/kg) [percentage variation] | percentage variation relative to the amount of estradiol at time 0, +6 h (seric estradiol; Subcutaneously, 1 mg/kg) [percentage variation] |
| --- | --- | --- | --- | --- | --- | --- |
| CSCC[C@]12CC[C@H](O)C=C1CC[C@@H]1C2=CC[C@]2(C)[C@@H](O)CC[C@@H]12 [26 (3 beta OH), 10β-[2-(methylthio)-ethyl]-Δ^4,9(11) estradien-3β,17β-diol] | 165 | -63 | -64 | – | – | – |
| CSCC[C@]12CCC(=O)C=C1CC[C@@H]1C2=CC[C@]2(C)C(=O)CC[C@@H]12 [Example 1, 10β-[2-(methylthio)-ethyl]-Δ^4,9(11) -estradiene-3,17-dione] | – | -51 | -51 | 20 | -55 | -68 |
| CCSCC[C@]12CCC(=O)C=C1CC[C@@H]1C2=CC[C@]2(C)C(=O)CC[C@@H]12 [Example 2] | 870 | – | – | – | – | – |
| CSCC[C@]12CCC(=O)C=C1CC[C@@H]1C2=CC[C@]2(C)[C@@H](O)CC[C@@H]12 [Example 13, 10β-[2-(methylthio)-ethyl]-Δ^4,9(11) -estradien-17-ol-3-one] | 50 | -70 | -53 | – | -56 | -60 |
| C#CSCC[C@]12CCC(=O)C=C1CC[C@@H]1C2=CC[C@]2(C)C(=O)CC[C@@H]12 [Example 21, 10β-[2-(ethynylthio)-ethyl]-Δ^4,9(11) -estradiene-3,17-dione] | 330 | – | – | – | – | – |
| C[C@]12CC=C3[C@@H](CCC4=CC(=O)CC[C@@]43CCSCF)[C@@H]1CCC2=O [Example 22] | 500 | – | – | – | – | – |
| CSCC[C@]12CC[C@@H](O)C=C1CC[C@@H]1C2=CC[C@]2(C)[C@@H](O)CC[C@@H]12 [Example 26 (3 alpha OH)] | – | -53 | -53 | – | – | – |
| CSCC[C@]12CCC(=O)C=C1CC[C@@H]1C2=CC[C@]2(C)[C@@H](OC(=O)CCC(=O)O)CC[C@@H]12 [Example 27, Butanedioate of 10β-[2-(methylthio)-ethyl]-3-oxo-Δ^4,9(11) -estradien-17β-yl and of sodium] | – | -58 | -45 | – | -56 | -20 |
| CSCC[C@]12CCC(=O)CC1CC[C@@H]1C2=CC[C@]2(C)C(=O)CC[C@@H]12 (stereo partly drawn) [Example 31, 10β-[2-(methylthio)-ethyl]-Δ^9(11) -estren-3,17-dione] | 5.5 | -69 | -56 | – | – | – |
